Assay results reported in ChEMBL document CHEMBL1201862, “PubChem BioAssay data set” (2004).
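Cultured in 96-well plates, cells were exposed to test compound for 48 hours across five concentrations. The concentration for 50% growth inhibition is given as GI50.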 Activity calls are given as the source filed them. Rule as the data show it: active = GI50 up to about 1.1 µM and inactive = higher.

Key:
Test in all cases: growth of human tumour cells (NCI), 48 h
SN12C = tested on: SN12C
HCC 2998 = tested on: HCC 2998
NCI/ADR-RES = tested on: NCI/ADR-RES
786-0 = tested on: 786-0
OVCAR-8 = tested on: OVCAR-8
OVCAR-4 = tested on: OVCAR-4
SK-MEL-2 = tested on: SK-MEL-2
RPMI-8226 = tested on: RPMI-8226
UACC-62 = tested on: UACC-62
T47D = tested on: T47D
LOX IMVI = tested on: LOX IMVI
UACC-257 = tested on: UACC-257
EKVX = tested on: EKVX
NCI-H522 = tested on: NCI-H522
K562 = tested on: K562
PC-3 = tested on: PC-3
DU-145 = tested on: DU-145
A498 = tested on: A498
HCT-15 = tested on: HCT-15
CAKI-1 = tested on: CAKI-1

Compound: COC(=O)c1c(C(=O)OC)c2ccccn2c1-c1cc(OC)c(Br)c(=O)o1
- GI50 (SN12C): > 100 µM (inactive)
- GI50 (HCC 2998): > 100 µM (inactive)
- GI50 (NCI/ADR-RES): > 100 µM (inactive)
- GI50 (786-0): > 100 µM (inactive)
- GI50 (OVCAR-8): > 100 µM (inactive)
- GI50 (OVCAR-4): > 100 µM (inactive)
- GI50 (SK-MEL-2): > 100 µM (inactive)
- GI50 (RPMI-8226): > 100 µM (inactive)
- GI50 (UACC-62): > 100 µM (inactive)
- GI50 (T47D): > 100 µM (inactive)
- GI50 (LOX IMVI): > 100 µM (inactive)
- GI50 (UACC-257): > 100 µM (inactive)
- GI50 (EKVX): > 100 µM (inactive)
- GI50 (NCI-H522): 68.7 µM (inactive)
- GI50 (K562): > 100 µM (inactive)
- GI50 (PC-3): > 100 µM (inactive)
- GI50 (DU-145): > 100 µM (inactive)
- GI50 (A498): > 100 µM (inactive)
- GI50 (HCT-15): > 100 µM

Compound: CSC(Cc1ccc2c(c1)Sc1ccccc1O2)=[N+]1CCOCC1
- GI50 (SN12C): > 100 µM (inactive)
- GI50 (HCC 2998): 91.8 µM (inactive)
- GI50 (NCI/ADR-RES): 56.8 µM (inactive)
- GI50 (786-0): 88.9 µM (inactive)
- GI50 (CAKI-1): > 100 µM (inactive)
- GI50 (OVCAR-8): 52.6 µM (inactive)
- GI50 (OVCAR-4): > 100 µM (inactive)
- GI50 (SK-MEL-2): > 100 µM (inactive)
- GI50 (RPMI-8226): 49.8 µM (inactive)
- GI50 (UACC-62): 58.5 µM (inactive)
- GI50 (T47D): 65.5 µM (inactive)
- GI50 (LOX IMVI): 80.4 µM (inactive)
- GI50 (UACC-257): 43 µM (inactive)
- GI50 (EKVX): 58.1 µM (inactive)
- GI50 (K562): 79.6 µM (inactive)
- GI50 (PC-3): 44.7 µM (inactive)
- GI50 (DU-145): > 100 µM (inactive)
- GI50 (A498): 46.5 µM (inactive)
- GI50 (HCT-15): 43.5 µM

Compound: O=C(Nc1nncs1)NS(=O)(=O)n1cnc2ccccc21
- GI50 (SN12C): > 100 µM (inactive)
- GI50 (HCC 2998): > 100 µM (inactive)
- GI50 (NCI/ADR-RES): > 100 µM (inactive)
- GI50 (786-0): > 100 µM (inactive)
- GI50 (CAKI-1): > 100 µM (inactive)
- GI50 (OVCAR-8): > 100 µM (inactive)
- GI50 (OVCAR-4): > 100 µM (inactive)
- GI50 (SK-MEL-2): > 100 µM (inactive)
- GI50 (RPMI-8226): > 100 µM (inactive)
- GI50 (UACC-62): > 100 µM (inactive)
- GI50 (T47D): > 100 µM (inactive)
- GI50 (UACC-257): > 100 µM (inactive)
- GI50 (EKVX): > 100 µM (inactive)
- GI50 (NCI-H522): > 100 µM (inactive)
- GI50 (PC-3): > 100 µM (inactive)
- GI50 (DU-145): > 100 µM (inactive)
- GI50 (A498): > 100 µM (inactive)
- GI50 (HCT-15): > 100 µM

Compound: Cc1ccc(C2c3c(n(C)c(=O)n(C)c3=O)OC(N(C)C)(N(C)C)C2(F)F)cc1 (stereo not drawn)
- GI50 (HCC 2998): > 100 µM (inactive)
- GI50 (NCI/ADR-RES): > 100 µM (inactive)
- GI50 (786-0): > 100 µM (inactive)
- GI50 (CAKI-1): > 100 µM (inactive)
- GI50 (OVCAR-4): 51.4 µM (inactive)
- GI50 (SK-MEL-2): > 100 µM (inactive)
- GI50 (RPMI-8226): > 100 µM (inactive)
- GI50 (UACC-62): > 100 µM (inactive)
- GI50 (T47D): > 100 µM (inactive)
- GI50 (LOX IMVI): > 100 µM (inactive)
- GI50 (UACC-257): > 100 µM (inactive)
- GI50 (EKVX): > 100 µM (inactive)
- GI50 (K562): > 100 µM (inactive)
- GI50 (PC-3): > 100 µM (inactive)
- GI50 (DU-145): > 100 µM (inactive)
- GI50 (A498): > 100 µM (inactive)
- GI50 (HCT-15): > 100 µM

Compound: Cc1ccc2ccc3ccc(C)nc3c2n1 [NEOCUPROINE]
- GI50 (SN12C): > 100 µM (inactive)
- GI50 (HCC 2998): 6.38 µM (inactive)
- GI50 (NCI/ADR-RES): > 100 µM (inactive)
- GI50 (786-0): > 29.7 µM (inactive)
- GI50 (CAKI-1): > 100 µM (inactive)
- GI50 (OVCAR-8): > 26.9 µM (inactive)
- GI50 (SK-MEL-2): > 100 µM (inactive)
- GI50 (RPMI-8226): > 100 µM (inactive)
- GI50 (UACC-62): 3.03 µM (inactive)
- GI50 (T47D): 1.06 µM (active)
- GI50 (LOX IMVI): 4.09 µM (inactive)
- GI50 (UACC-257): 1.86 µM (inactive)
- GI50 (EKVX): > 100 µM (inactive)
- GI50 (NCI-H522): 74.3 µM (inactive)
- GI50 (K562): 0.542 µM (active)
- GI50 (PC-3): 2.1 µM (inactive)
- GI50 (DU-145): > 100 µM (inactive)
- GI50 (A498): > 40.1 µM (inactive)
- GI50 (HCT-15): > 71.6 µM

Compound: C=CC(C)(C)/C(=C\CO[Si](C(C)C)(C(C)C)C(C)C)C(=O)N(C)c1ccccc1I
- GI50 (SN12C): 16.2 µM (inactive)
- GI50 (HCC 2998): 13.2 µM (inactive)
- GI50 (NCI/ADR-RES): 19.5 µM (inactive)
- GI50 (786-0): 14.5 µM (inactive)
- GI50 (CAKI-1): 19 µM (inactive)
- GI50 (OVCAR-8): 14.8 µM (inactive)
- GI50 (OVCAR-4): 23 µM (inactive)
- GI50 (RPMI-8226): 2.96 µM (inactive)
- GI50 (UACC-62): 13.1 µM (inactive)
- GI50 (T47D): 9.98 µM (inactive)
- GI50 (LOX IMVI): 14.3 µM (inactive)
- GI50 (UACC-257): 13.3 µM (inactive)
- GI50 (EKVX): 16 µM (inactive)
- GI50 (NCI-H522): 5.62 µM (inactive)
- GI50 (PC-3): 2.71 µM (inactive)
- GI50 (DU-145): 13.9 µM (inactive)
- GI50 (A498): 20.3 µM (inactive)
- GI50 (HCT-15): 16.4 µM

Compound: CC(C)C(=O)CP(=O)(O)O
- GI50 (SN12C): > 100 µM (inactive)
- GI50 (NCI/ADR-RES): > 100 µM (inactive)
- GI50 (786-0): > 100 µM (inactive)
- GI50 (CAKI-1): > 100 µM (inactive)
- GI50 (OVCAR-8): > 100 µM (inactive)
- GI50 (OVCAR-4): > 100 µM (inactive)
- GI50 (SK-MEL-2): > 100 µM (inactive)
- GI50 (RPMI-8226): > 100 µM (inactive)
- GI50 (UACC-62): > 100 µM (inactive)
- GI50 (T47D): > 100 µM (inactive)
- GI50 (LOX IMVI): > 100 µM (inactive)
- GI50 (UACC-257): > 100 µM (inactive)
- GI50 (EKVX): 23.4 µM (inactive)
- GI50 (NCI-H522): > 100 µM (inactive)
- GI50 (K562): > 100 µM (inactive)
- GI50 (PC-3): > 100 µM (inactive)
- GI50 (DU-145): > 100 µM (inactive)
- GI50 (A498): > 100 µM (inactive)
- GI50 (HCT-15): > 100 µM

Compound: CC(=O)O[C@H]1C(=O)[C@@]2(C)[C@H]([C@H](OC(=O)c3ccccc3)[C@]3(O)C[C@H](OC(=O)[C@H](O)[C@@H](NC(=O)c4ccoc4)c4ccccc4)C(C)=C1C3(C)C)[C@]1(OC(C)=O)CO[C@@H]1C[C@@H]2O
- GI50 (SN12C): 0.0338 µM (active)
- GI50 (HCC 2998): 0.0216 µM (active)
- GI50 (NCI/ADR-RES): 44 µM (inactive)
- GI50 (786-0): 0.18 µM (active)
- GI50 (OVCAR-8): 0.067 µM (active)
- GI50 (OVCAR-4): 31.1 µM (inactive)
- GI50 (SK-MEL-2): 0.0225 µM (active)
- GI50 (RPMI-8226): 0.00871 µM (active)
- GI50 (UACC-62): 0.0776 µM (active)
- GI50 (T47D): 0.0307 µM (active)
- GI50 (LOX IMVI): 0.0215 µM (active)
- GI50 (UACC-257): 16 µM (inactive)
- GI50 (EKVX): 0.897 µM (active)
- GI50 (NCI-H522): < 0.01 µM (active)
- GI50 (K562): 0.016 µM (active)
- GI50 (PC-3): 0.0212 µM (active)
- GI50 (DU-145): 0.0624 µM (active)
- GI50 (A498): 0.0713 µM (active)
- GI50 (HCT-15): 0.757 µM
